# Results taken from patent US10167262B2, “Herbicidal substituted 3-arylpyrazoles” (FMC CORPORATION, priority 2014, dated 2019).
# Read-outs that look alike come from different tables or passages of the source.
# Legend:
# Type in all cases: in vivo
# [1] = tested on: chickweed (common chickweed, Stellaria media); test: Test C postemergence greenhouse test, plant response rating 0-100; conditions: Stellaria media, post-emergence
# Summary of the method: (§1)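 Potted in peat/vermiculite mix; postemergence application at 1–4 leaves (2–18 cm); greenhouse 13–15 d; visual score 0–100 relative to untreated plants; dash = no test result.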
# kochia (Kochia scoparia) = test: as above; conditions: Bassia scoparia, post-emergence
# Summary of the method: as §1
# wild oat (Avena fatua) = test: as above; conditions: Avena fatua, post-emergence
# Summary of the method: as §1
# [2] = tested on: giant foxtail (Setaria faberii); test: Test C pre-/postemergence greenhouse test, plant response rating 0-100; conditions: Setaria faberi; for pest or weed control at 62 g/ha: 62 g ai/ha; for pest or weed control at 125 g/ha: 125 g ai/ha; for pest or weed control at 250 g/ha: 250 g ai/ha; for pest or weed control at 500 g/ha: 500 g ai/ha
# Summary of the method: (§2)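 Visual rating vs controls after 13–15 d greenhouse; 0 = no effect, 100 = complete control. Pre: seeds in loam/sand, treated at planting. Post: seedlings 2–18 cm (1–4 leaf) in peat-based mix. Compounds in surfactant-containing non-phytotoxic solvent.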
# [3] = tested on: lambsquarters (Chenopodium album); test: as above; conditions: Chenopodium album; for pest or weed control at 62 g/ha: 62 g ai/ha; for pest or weed control at 125 g/ha: 125 g ai/ha; for pest or weed control at 250 g/ha: 250 g ai/ha; for pest or weed control at 500 g/ha: 500 g ai/ha
# Summary of the method: as §2
# corn (Zea mays) = test: as above; conditions: Zea mays, pre-emergence, Preemergence
# Summary of the method: as §2
# [4] = tested on: winter wheat (Triticum aestivum); test: as above; conditions: Triticum aestivum; for plant injury at 62 g/ha: 62 g ai/ha; for plant injury at 125 g/ha: 125 g ai/ha; for plant injury at 250 g/ha: 250 g ai/ha; for plant injury at 500 g/ha: 500 g ai/ha
# Summary of the method: as §2
# [5] = tested on: morningglory (Ipomoea coccinea); test: as above; conditions: Ipomoea; for pest or weed control at 62 g/ha: 62 g ai/ha; for pest or weed control at 125 g/ha: 125 g ai/ha; for pest or weed control at 250 g/ha: 250 g ai/ha; for pest or weed control at 500 g/ha: 500 g ai/ha
# Summary of the method: as §2
# [6] = tested on: blackgrass (Alopecurus myosuroides); test: as above; conditions: Alopecurus myosuroides; for pest or weed control at 62 g/ha: 62 g ai/ha; for pest or weed control at 125 g/ha: 125 g ai/ha; for pest or weed control at 250 g/ha: 250 g ai/ha; for pest or weed control at 500 g/ha: 500 g ai/ha
# Summary of the method: as §2
# soybean (Glycine max) = test: as above; conditions: Glycine max; for plant injury at 62 g/ha: 62 g ai/ha; for plant injury at 125 g/ha: 125 g ai/ha; for plant injury at 250 g/ha: 250 g ai/ha; for plant injury at 500 g/ha: 500 g ai/ha
# Summary of the method: as §2
# [7] = tested on: johnsongrass (Sorghum halepense); test: as above; conditions: Sorghum halepense; for pest or weed control at 62 g/ha: 62 g ai/ha; for pest or weed control at 125 g/ha: 125 g ai/ha; for pest or weed control at 250 g/ha: 250 g ai/ha; for pest or weed control at 500 g/ha: 500 g ai/ha
# Summary of the method: as §2
# [8] = tested on: pigweed (Amaranthus retroflexus); test: as above; conditions: Amaranthus retroflexus; for pest or weed control at 62 g/ha: 62 g ai/ha; for pest or weed control at 250 g/ha: 250 g ai/ha; for pest or weed control at 500 g/ha: 500 g ai/ha
# Summary of the method: as §2
# [9] = tested on: velvetleaf (Abutilon theophrasti); test: as above; conditions: Abutilon theophrasti; for pest or weed control at 62 g/ha: 62 g ai/ha; for pest or weed control at 125 g/ha: 125 g ai/ha; for pest or weed control at 250 g/ha: 250 g ai/ha; for pest or weed control at 500 g/ha: 500 g ai/ha
# Summary of the method: as §2
# [10] = post-emergence, Postemergence, read-out: Plant response rating (0 to 100), Foxtail, Giant
# [11] = post-emergence, Postemergence, scale 0 to 100
# [12] = pre-emergence, Preemergence, read-out: Plant response rating, Foxtail, Giant
# [13] = post-emergence, Postemergence, read-out: Plant response rating (0 to 100), Lambsquarters
# [14] = pre-emergence, Preemergence, read-out: Plant response rating, Lambsquarters
# [15] = post-emergence, Postemergence, read-out: Plant response rating (0 to 100), Wheat
# [16] = pre-emergence, Preemergence, read-out: Plant response rating, Wheat
# [17] = post-emergence, Postemergence, read-out: Plant response rating (0 to 100), Morningglory
# [18] = pre-emergence, Preemergence, read-out: Plant response rating, Morningglory
# [19] = post-emergence, Postemergence, read-out: Plant response rating (0 to 100), Blackgrass
# [20] = pre-emergence, Preemergence, read-out: Plant response rating, Blackgrass
# [21] = post-emergence, Postemergence, read-out: Plant response rating (0 to 100), Soybean
# [22] = pre-emergence, Preemergence, read-out: Plant response rating, Soybean
# [23] = post-emergence, Postemergence, read-out: Plant response rating (0 to 100), Johnsongrass
# [24] = pre-emergence, Preemergence, read-out: Plant response rating, Johnsongrass
# [25] = post-emergence, Postemergence, read-out: Plant response rating (0 to 100), Velvetleaf
# [26] = pre-emergence, Preemergence, read-out: Plant response rating, Velvetleaf
smiles,measurement,setting,value
"C#CCn1cc(C(=O)c2ccccc2)c(-c2cc(Cl)cc(Cl)c2)n1 [Compound 39, [3-(3,5-dichlorophenyl)-1-(2-propyn-1-yl)-1H-pyrazol-4-yl]phenylmethanone]",pest or weed control at 62 g/ha,[1]; 62 g ai/ha,98%
same,pest or weed control at 125 g/ha,[1]; 125 g ai/ha,98%
same,pest or weed control at 250 g/ha,"[1]; 250 g ai/ha, scale 0 to 100",100%
same,pest or weed control at 500 g/ha,"[1]; 500 g ai/ha, scale 0 to 100",100%
same,pest or weed control at 62 g/ha,kochia (Kochia scoparia); 62 g ai/ha,15%
same,pest or weed control at 125 g/ha,kochia (Kochia scoparia); 125 g ai/ha,40%
same,pest or weed control at 250 g/ha,"kochia (Kochia scoparia); 250 g ai/ha, scale 0 to 100",55%
same,pest or weed control at 500 g/ha,"kochia (Kochia scoparia); 500 g ai/ha, scale 0 to 100",80%
same,pest or weed control at 62 g/ha,wild oat (Avena fatua); 62 g ai/ha,0%
same,pest or weed control at 125 g/ha,wild oat (Avena fatua); 125 g ai/ha,0%
same,pest or weed control at 250 g/ha,"wild oat (Avena fatua); 250 g ai/ha, scale 0 to 100",0%
same,pest or weed control at 500 g/ha,"wild oat (Avena fatua); 500 g ai/ha, scale 0 to 100",5%
same,pest or weed control at 62 g/ha,[2]; [10],0%
same,pest or weed control at 125 g/ha,[2]; [10],0%
same,pest or weed control at 250 g/ha,[2]; [11],0%
same,pest or weed control at 500 g/ha,[2]; [11],0%
same,pest or weed control at 62 g/ha,[2]; [12],0%
same,pest or weed control at 125 g/ha,[2]; [12],0%
same,pest or weed control at 250 g/ha,"[2]; pre-emergence, Preemergence",0%
same,pest or weed control at 500 g/ha,"[2]; pre-emergence, Preemergence",0%
same,pest or weed control at 62 g/ha,[3]; [13],80%
same,pest or weed control at 125 g/ha,[3]; [13],80%
same,pest or weed control at 250 g/ha,[3]; [11],100%
same,pest or weed control at 500 g/ha,[3]; [11],100%
same,pest or weed control at 62 g/ha,[3]; [14],30%
same,pest or weed control at 125 g/ha,[3]; [14],100%
same,pest or weed control at 250 g/ha,"[3]; pre-emergence, Preemergence",100%
same,pest or weed control at 500 g/ha,"[3]; pre-emergence, Preemergence",100%
same,"Corn plant response rating (crop injury, 0 = no effect, 100 = complete kill) at 62 g/ha",corn (Zea mays); 62 g ai/ha,0%
same,"Corn plant response rating (crop injury, 0 = no effect, 100 = complete kill) at 125 g/ha",corn (Zea mays); 125 g ai/ha,0%
same,"Corn plant response rating (crop injury, 0 = no effect, 100 = complete kill) at 250 g/ha",corn (Zea mays); 250 g ai/ha,0%
same,plant injury at 62 g/ha,[4]; [15],0%
same,plant injury at 125 g/ha,[4]; [15],0%
same,plant injury at 250 g/ha,[4]; [11],0%
same,plant injury at 500 g/ha,[4]; [11],0%
same,plant injury at 62 g/ha,[4]; [16],0%
same,plant injury at 125 g/ha,[4]; [16],0%
same,plant injury at 250 g/ha,"[4]; pre-emergence, Preemergence",0%
same,plant injury at 500 g/ha,"[4]; pre-emergence, Preemergence",0%
same,pest or weed control at 62 g/ha,[5]; [17],0%
same,pest or weed control at 125 g/ha,[5]; [17],0%
same,pest or weed control at 250 g/ha,[5]; [11],10%
same,pest or weed control at 500 g/ha,[5]; [11],10%
same,pest or weed control at 62 g/ha,[5]; [18],20%
same,pest or weed control at 125 g/ha,[5]; [18],20%
same,pest or weed control at 250 g/ha,"[5]; pre-emergence, Preemergence",20%
same,pest or weed control at 500 g/ha,"[5]; pre-emergence, Preemergence",20%
same,pest or weed control at 62 g/ha,[6]; [19],0%
same,pest or weed control at 125 g/ha,[6]; [19],0%
same,pest or weed control at 250 g/ha,[6]; [11],0%
same,pest or weed control at 500 g/ha,[6]; [11],0%
same,pest or weed control at 62 g/ha,[6]; [20],0%
same,pest or weed control at 125 g/ha,[6]; [20],0%
same,pest or weed control at 250 g/ha,"[6]; pre-emergence, Preemergence",0%
same,pest or weed control at 500 g/ha,"[6]; pre-emergence, Preemergence",0%
same,plant injury at 62 g/ha,soybean (Glycine max); [21],0%
same,plant injury at 125 g/ha,soybean (Glycine max); [21],0%
same,plant injury at 250 g/ha,soybean (Glycine max); [11],0%
same,plant injury at 500 g/ha,soybean (Glycine max); [11],0%
same,plant injury at 62 g/ha,soybean (Glycine max); [22],0%
same,plant injury at 125 g/ha,soybean (Glycine max); [22],0%
same,plant injury at 250 g/ha,"soybean (Glycine max); pre-emergence, Preemergence",0%
same,plant injury at 500 g/ha,"soybean (Glycine max); pre-emergence, Preemergence",0%
same,pest or weed control at 62 g/ha,[7]; [23],0%
same,pest or weed control at 125 g/ha,[7]; [23],0%
same,pest or weed control at 250 g/ha,[7]; [11],5%
same,pest or weed control at 500 g/ha,[7]; [11],5%
same,pest or weed control at 62 g/ha,[7]; [24],0%
same,pest or weed control at 125 g/ha,[7]; [24],0%
same,pest or weed control at 250 g/ha,"[7]; pre-emergence, Preemergence",0%
same,pest or weed control at 500 g/ha,"[7]; pre-emergence, Preemergence",0%
same,pest or weed control at 62 g/ha,"[8]; post-emergence, Postemergence, read-out: Plant response rating (0 to 100), Pigweed",90%
same,pest or weed control at 250 g/ha,[8]; [11],98%
same,pest or weed control at 500 g/ha,[8]; [11],98%
same,pest or weed control at 62 g/ha,"[8]; pre-emergence, Preemergence, read-out: Plant response rating, Pigweed",45%
same,pest or weed control at 125 g/ha,"[8]; pre-emergence, Preemergence, 125 g ai/ha, read-out: Plant response rating, Pigweed",75%
same,pest or weed control at 250 g/ha,"[8]; pre-emergence, Preemergence",85%
same,pest or weed control at 500 g/ha,"[8]; pre-emergence, Preemergence",95%
same,pest or weed control at 62 g/ha,[9]; [25],75%
same,pest or weed control at 125 g/ha,[9]; [25],85%
same,pest or weed control at 250 g/ha,[9]; [11],85%
same,pest or weed control at 500 g/ha,[9]; [11],98%
same,pest or weed control at 62 g/ha,[9]; [26],55%
same,pest or weed control at 125 g/ha,[9]; [26],65%
same,pest or weed control at 250 g/ha,"[9]; pre-emergence, Preemergence",65%
same,pest or weed control at 500 g/ha,"[9]; pre-emergence, Preemergence",80%
